The nature of series [1]: Fluorescence emission spectra of probes in glycerol and methanol (viscosity response). The series is classed as physicochemical. Conditions: maximum excitation wavelength of each probe; for Fluorescence ratio in glycerol methanol: 1×10^−5 M; for Emission wavelength: medium not given. The source says:
Respectively dissolve Probe 1-32 and Reference Probes BG-CCVJ and BG-Gly-CCVJ in dimethyl sulfoxide so as to prepare a mother liquid with a concentration of 1×10^−2M; add the mother liquid to glycerol and methanol respectively and mix them well to prepare a solution with a concentration of 1×10^−5 M. Based on different probes, the fluorescence emission spectrum of each probe are detected under the same conditions with maximum excitation wavelength of each probe.
The probes are sensitive to the change of viscosity and have viscosity response.

The subject of series [2] is CLIP protein tag. Put plainly: Fluorescence activation after mixing probe with corresponding protein tag (CLIP). It counts as biochemical. Conditions: probe 5 μM, protein tag 10 μM, 37° C., 1 h. The method, then:
(§1) Mix the probe with corresponding protein tag to obtain the mixed sample, wherein the final concentration of probe in the mixed sample is 5 μM, and the final concentration of protein tags is 10 μM; hatch the mixed sample at 37° C. for 1 h, and detect its fluorescence intensity change by using the fluorescence spectrophotometer.
(§2) According to the free probe quantum yield shown in Table 1, the fluorescence of the probes of and reference probes are extremely low before the reaction with the protein tag, and is close to the background fluorescence level of PBS buffer solution. […] However, according to the quantum yield of the binding protein tag, the fluorescence signal enhancement can be detected in the corresponding excitation emission channel after the probe reacts with the protein tag with hundreds to one thousand fold fluorescence activation times and very high brightness; the reference probes also can activate fluorescence, but the fluorescence quantum yield and brightness after activation are quite low.

Series [3] in a line: Fluorescence of free probe before reaction with the protein tag. It counts as physicochemical. The method, then: as §1, §2
In series [4] the test system is SNAP protein tag. Put plainly: Fluorescence activation after mixing probe with corresponding protein tag (SNAP). Conditions: probe 5 μM, protein tag 10 μM, 37° C., 1 h. It counts as biochemical. The method, then:
as §1, §2

Series [5] deals with Hela cells. Description: Labeling of protein tags located in different organelles of Hela cells without washing. Conditions: probe 0.2 μM, 2 h. It counts as cell-based. The method, then:
Plant Hela cells (5000 cells/well) in a glass bottom plate of 96-well for 14 h, and then use Lipo2000 kit to transfect protein tags to locate plasmids in different organelles. After 24 h of transfection, remove the original culture medium, wash the culture medium twice with phenol free red DMEM culture medium, and hatch the cells with phenol free red medium containing probe (0.2 μM) for 2 h, and detect the effect of cell labeling by using Leica TCS-8 confocal microscopy imaging.

Series [6] relates to Hela cells. Description: Labeling of Hela cells expressing protein tags versus Hela-WT cells, confocal microscopy. Conditions: probe 5 μM, 37° C., 2 h. The series is classed as cell-based. Here is the method: Take Hela cells as an example to detect the labeling effect of the compounds in mammalian cells. Hela cells and Hela-WT cells (Hela primitive cells without expressing protein tags), which can express protein tags stably, are planted in a glass bottom 96-well plate of 14 mm for 10 h. Add Probe 16, Probe 17 and Probe 18 into a culture medium respectively and dilute them to 5 μM. Hatch the cells in a carbon dioxide incubator at 37° C. for 2 h. Detect the fluorescence changes of labeled cells by using Leica TPS-8 confocal microscopy.

Take `CN(CCOC(=O)NCc1ccc(COc2nccc(N)n2)cc1)c1ccc2nc(/C=C(\C#N)C(=O)OC(C)(C)C)ccc2c1` [Probe 3]: in series [1], the “Fluorescence ratio in glycerol methanol” value is on record as 621 and the Emission wavelength was 550 nm. For the same compound, in series [2], the Fluorescence activation multiple was 473 and the “Quantum yield of binding protein tags” value is recorded as 0.41. In series [3], the “Quantum yield of free probe” value was less than 0.001.

With `CN(CCOC(=O)NCc1ccc(COc2nccc(N)n2)cc1)c1ccc2c(c1)C(C)(C)c1cc(/C=C(\C#N)C(=O)OC(C)(C)C)oc1-2` [Probe 29], in series [1], the “Fluorescence ratio in glycerol methanol” value turned out to be 1024 and the Emission wavelength was 652 nm. For the same compound, in series [2], the Fluorescence activation multiple is on record as 933 and the “Quantum yield of binding protein tags” value is recorded as 0.57. The “Quantum yield of free probe” value in series [3] was less than 0.001.

`CN(CCOC(=O)NCc1ccc(COc2nccc(N)n2)cc1)c1ccc(-c2ccc(/C=C(\C#N)C(=O)OC(C)(C)C)o2)cc1` [Probe 8]: in series [1], the “Fluorescence ratio in glycerol methanol” value stood at 574 and the Emission wavelength was 630 nm. In addition, in series [2], the Fluorescence activation multiple is 555 and the “Quantum yield of binding protein tags” value came to 0.40. Further, the “Quantum yield of free probe” value in series [3] is less than 0.001.

In the case of `CN(CCOC(=O)NCc1ccc(COc2nccc(N)n2)cc1)c1ccc2c(c1)C(C)(C)c1cc(/C=C(\C#N)C(=O)OC(C)(C)C)sc1-2` [Probe 24], in series [1], the “Fluorescence ratio in glycerol methanol” value is given as 1125 and the Emission wavelength is on record as 645 nm. For the same compound, in series [2], the Fluorescence activation multiple stood at 535 and the “Quantum yield of binding protein tags” value amounted to 0.55. For the same compound, the “Quantum yield of free probe” value in series [3] is listed as less than 0.001.

Take `CN(CCOC(=O)NCc1ccc(COc2nc(N)nc3[nH]cnc23)cc1)c1ccc(-c2ccc(/C=C(\C#N)C(=O)OC(C)(C)C)o2)o1` [Probe 13]: in series [1], the “Fluorescence ratio in glycerol methanol” value is listed as 311 and the Emission wavelength is reported as 650 nm. For the same compound, in series [4], the Fluorescence activation multiple was determined as 359 and the “Quantum yield of binding protein tags” value was 0.37. Also, the “Quantum yield of free probe” value in series [3] stood at 0.0012.

`CN(CCOC(=O)NCc1ccc(COc2nccc(N)n2)cc1)c1ccc2c(c1)C(C)(C)c1cc(/C=C(\C#N)c3nc4ccccc4o3)sc1-2` [Probe 25]: in series [1], the “Fluorescence ratio in glycerol methanol” value is 782 and the Emission wavelength was 670 nm. In series [2], the Fluorescence activation multiple worked out at 421 and the “Quantum yield of binding protein tags” value was determined as 0.41. Moreover, in series [3], the “Quantum yield of free probe” value is reported as less than 0.001.

As to `CN(CCOC(=O)NCc1ccc(COc2nccc(N)n2)cc1)c1ccc(-c2ccc(/C=C(\C#N)C(=O)OC(C)(C)C)o2)o1` [Probe 15], in series [1], the “Fluorescence ratio in glycerol methanol” value stood at 301 and the Emission wavelength is 651 nm. In series [2], the Fluorescence activation multiple turned out to be 265 and the “Quantum yield of binding protein tags” value came to 0.35. In series [3], the “Quantum yield of free probe” value was 0.0012.

Consider `CN(CCOC(=O)NCc1ccc(COc2nccc(N)n2)cc1)c1ccc2c(c1)C(C)(C)c1cc(/C=C(\C#N)c3nc4ccccc4s3)sc1-2` [Probe 26], for which, in series [1], the “Fluorescence ratio in glycerol methanol” value worked out at 522 and the Emission wavelength is 675 nm. Also, in series [2], the Fluorescence activation multiple is 478 and the “Quantum yield of binding protein tags” value is reported as 0.46. The “Quantum yield of free probe” value in series [3] was less than 0.001.

Turning to `COCCNC(=O)/C(C#N)=C/c1ccc(-c2ccc(N(C)CCOC(=O)NCc3ccc(COc4nc(N)nc5[nH]cnc45)cc3)cc2)o1` [Probe 6], in series [1], the “Fluorescence ratio in glycerol methanol” value came to 851 and the Emission wavelength was 627 nm. In series [4], the Fluorescence activation multiple turned out to be 745 and the “Quantum yield of binding protein tags” value worked out at 0.41. Moreover, the “Quantum yield of free probe” value in series [3] was less than 0.001.

Turning to `CN(CCOC(=O)NCc1ccc(COc2nc(N)nc3[nH]cnc23)cc1)c1ccc2nc(/C=C(\C#N)C(=O)OC(C)(C)C)ccc2c1` [Probe 1], in series [1], the “Fluorescence ratio in glycerol methanol” value came to 562 and the Emission wavelength was found to be 550 nm. For the same compound, in series [4], the Fluorescence activation multiple was 490 and the “Quantum yield of binding protein tags” value is recorded as 0.41. The “Quantum yield of free probe” value in series [3] is given as less than 0.001.

`CN(CCOC(=O)NCc1ccc(COc2nc(N)nc3[nH]cnc23)cc1)c1ccc(-c2ccc(/C=C(\C#N)c3nc4ccccc4o3)o2)cc1` [Probe 7]: in series [1], the “Fluorescence ratio in glycerol methanol” value is recorded as 814 and the Emission wavelength is on record as 666 nm. Besides, in series [4], the Fluorescence activation multiple is on record as 701 and the “Quantum yield of binding protein tags” value is on record as 0.45. Besides, the “Quantum yield of free probe” value in series [3] is given as less than 0.001.

`CN(CCOC(=O)NCc1ccc(COc2nc(N)nc3[nH]cnc23)cc1)c1ccc(-c2ccc(/C=C(\C#N)c3nc4ccccc4s3)o2)o1` [Probe 14]: in series [1], the “Fluorescence ratio in glycerol methanol” value came to 402 and the Emission wavelength is 725 nm. Besides, in series [4], the Fluorescence activation multiple is given as 498 and the “Quantum yield of binding protein tags” value was found to be 0.35. Also, the “Quantum yield of free probe” value in series [3] is given as 0.001.

As for `CN(CCOC(=O)NCc1ccc(COc2cc(Cl)nc(N)n2)cc1)c1ccc2nc(/C=C(\C#N)C(=O)OC(C)(C)C)ccc2c1` [Probe 4], in series [1], the “Fluorescence ratio in glycerol methanol” value came out at 601 and the Emission wavelength came to 550 nm. Also, in series [4], the Fluorescence activation multiple is 567 and the “Quantum yield of binding protein tags” value is recorded as 0.39. Also, in series [3], the “Quantum yield of free probe” value was less than 0.001.

For the compound `N#C/C(=C\c1cc2c3c(c1)CCCN3CCC2)C(=O)NCc1ccc(COc2nc(N)nc3[nH]cnc23)cc1` [Reference probe BG-CCVJ, reference compound], in series [1], the “Fluorescence ratio in glycerol methanol” value was 260 and the Emission wavelength worked out at 501 nm. Also, in series [4], the Fluorescence activation multiple turned out to be 170 and the “Quantum yield of binding protein tags” value was determined as 0.02. Further, the “Quantum yield of free probe” value in series [3] is less than 0.001.

In the case of `CN(CCOC(=O)NCc1ccc(COc2nc(N)nc3[nH]cnc23)cc1)c1ccc2nc(/C=C(\C#N)c3nc4ccccc4o3)ccc2c1` [Probe 2], in series [1], the “Fluorescence ratio in glycerol methanol” value worked out at 790 and the Emission wavelength was found to be 630 nm. In series [4], the Fluorescence activation multiple is given as 556 and the “Quantum yield of binding protein tags” value was determined as 0.44. Besides, the “Quantum yield of free probe” value in series [3] is reported as less than 0.001.

On to `CN(CCOC(=O)NCc1ccc(COc2nccc(N)n2)cc1)c1ccc2c(c1)C(C)(C)C(/C=C(\C#N)C(=O)OC(C)(C)C)=N2` [Probe 32], for which, in series [1], the “Fluorescence ratio in glycerol methanol” value is listed as 553 and the Emission wavelength is reported as 675 nm. For the same compound, in series [4], the Fluorescence activation multiple is on record as 421 and the “Quantum yield of binding protein tags” value worked out at 0.41. Besides, the “Quantum yield of free probe” value in series [3] is on record as less than 0.001.

In the case of `CN(CCOC(=O)NCc1ccc(COc2nc(N)nc3[nH]cnc23)cc1)c1ccc2c(c1)C(C)(C)c1cc(/C=C(\C#N)c3nc4ccccc4s3)sc1-2` [Probe 18], in series [1], the “Fluorescence ratio in glycerol methanol” value stood at 1123 and the Emission wavelength amounted to 675 nm. In series [5], the “Display of subcellular organelle structures” value is reported as “can clearly display a variety of subcellular organelle structures without washing”. Also, in series [6], the “Fluorescence signal in Hela-WT cells (without protein tags)” value is listed as “no corresponding fluorescence signal is detected” and the “Increase of fluorescence signal in cells expressing protein tags” value is roughly 700 times. In series [4], the Fluorescence activation multiple is 890 and the “Quantum yield of binding protein tags” value worked out at 0.48. Besides, the “Quantum yield of free probe” value in series [3] is less than 0.001.

The values are drawn from US12613246B2, “Fluorescent probe and protein labeling method” (SHANGHAI GLORY CAPITAL MANAGEMENT LTD., priority 2018, dated 2026).
